Reference: US7943610B2, “Pyrazolopyridine-1,4-diamines and analogs thereof” (3M Innovative Properties Company, priority 2005, dated 2011)

Row | melting point | SMILES
1 | 160 to 161 °C | CCCn1nc2c(N)nc3ccccc3c2c1NCc1ccccc1 [Example 37, N^1-Benzyl-2-propyl-2H-pyrazolo[3,4-c]quinoline-1,4-diamine]
2 | 200 to 201 °C | CCCn1nc2c(N)nc3ccccc3c2c1NC [Example 35, N^1-Methyl-2-propyl-2H-pyrazolo[3,4-c]quinoline-1,4-diamine]
3 | 199 to 200 °C | CCCn1nc2c(N)nc3ccccc3c2c1NC(C)C [Example 36, N^1-Isopropyl-2-propyl-2H-pyrazolo[3,4-c]quinoline-1,4-diamine]
4 | 193 to 194 °C | CCCn1nc2c(N)nc3ccccc3c2c1NCC [Example 2, N^1-Ethyl-2-propyl-2H-pyrazolo[3,4-c]quinoline-1,4-diamine]
5 | 203 to 206 °C | CCCn1nc2c(N)nc3ccccc3c2c1NCCC1CCN(C(C)=O)CC1 [Example 6, N^1-[2-(1-Acetylpiperidin-4-yl)ethyl]-2-propyl-2H-pyrazolo[3,4-c]quinoline-1,4-diamine]
6 | 168 to 170 °C | CCCn1nc2c(N)nc3ccccc3c2c1NCCC1CCN(C(=O)NC(C)C)CC1 [Example 5, 4-{2-[(4-Amino-2-propyl-2H-pyrazolo[3,4-c]quinolin-1-yl)amino]ethyl}-N-isopropylpiperidine-1-carboxamide]
7 | 253 °C (dec.) | CCCn1nc2c(N)nc3ccccc3c2c1N [Example 1, 2-Propyl-2H-pyrazolo[3,4-c]quinoline-1,4-diamine]
